Data set [1] relates to recombinant NL4-3 virus (nef section replaced with Renilla luciferase gene) in MT-2 cells. Kind of data set: HIV cell culture assay (antiviral activity, luciferase readout). Particulars: MT-2 cells infected for 4-5 days with recombinant NL4-3 luciferase virus. The format is cell-based. As for the experimental part:
HIV cell culture assay—MT-2 cells, 293T cells and the proviral DNA clone of NL4-3 virus were obtained from the NIH AIDS Research and Reference Reagent Program. MT-2 cells were propagated in RPMI 1640 media supplemented with 10% heat inactivated fetal bovine serum (FBS), 100 μg/ml penicillin G and up to 100 units/mL streptomycin. The 293T cells were propagated in DMEM media supplemented with 10% heat inactivated FBS, 100 μg/mL penicillin G and 100 μg/mL streptomycin. A recombinant NL4-3 proviral clone, in which a section of the nef gene was replaced with the Renilla luciferase gene, was used to make the reference virus used in these studies. The recombinant virus was prepared through transfection of the recombinant NL4-3 proviral clone into 293T cells using Transit-293 Transfection Reagent from Mirus Bio LLC (Madison, Wis.). Supernatent was harvested after 2-3 days and the amount of virus present was titered in MT-2 cells using luciferase enzyme activity as a marker by measuring luciferase enzyme activity. Luciferase was quantitated using the EnduRen Live Cell Substrate from Promega (Madison, Wis.). Antiviral activities of compounds toward the recombinant virus were quantified by measuring luciferase activity in MT-2 cells infected for 4-5 days with the recombinant virus in the presence of serial dilutions of the compound.
The 50% effective concentration (ECs) was calculated by using the exponential form of the median effect equation where (Fa)=1/[1+(ED50/drug conc.)^m] (Johnson Va., Byington RT. Infectivity Assay. In Techniques in HIV Research. ed. Aldovini A, Walker BD. 71-76. New York: Stockton Press. 1990).

Data set [2] is described as follows: Compound cytotoxicity, XTT-based colorimetric assay. Particulars: human, uninfected MT2 cells. It counts as cell-based. As for the experimental part: Compound cytotoxicity and the corresponding CC50 values were determined using the same protocol as described in the antiviral assay except that uninfected cells were used. Cytotoxicity was assessed on day 4 in uninfected MT2 cells by using a XTT (2,3-bis[2-Methoxy-4-nitro-5-sulfophenyl]-2H-tetrazolium-5-carboxyanilide inner salt)-based colorimetric assay (Sigma-Aldrich, St Louis, Mo.). Biological data for select compounds of the invention are contained in Table 1 and Table 1a

Each structure is given as a SMILES string. Where only a bound is given, the exact number is not on record here.

In the case of `Cn1nc(NS(C)(=O)=O)c2c(Cl)ccc(-n3c(C(Cc4cc(F)cc(F)c4)NC(=O)Cn4nc(C(F)F)c5c4C(F)(F)[C@@H]4C[C@H]54)nc4nc(C#N)ccc4c3=O)c21` (mixture of isomers) [Example 40.1, N-(1-(3-(4-chloro-1l-methyl-3-(methylsulfonamido)-1H-indazol-7-yl)-7-cyano-4-oxo-3,4-dihydropyrido[2,3-d]pyrimidin-2-yl)-2-(3,5-difluorophenyl)ethyl)-2-((3bS,4aR)-3-(difluoromethyl)-5,5-difluoro-3b,4,4a,5-tetrahydro-1H-cyclopropa[3,4]cyclopenta[1,2-c]pyrazol-1-yl)acetamide], the 50% effective concentration (EC50) in data set [1] (Renilla, NL43, Table 1a) worked out at 0.58 nM. Also, in data set [2] (Table 1a, day 4, XTT), the CC50 at 4 days was above 1 µM.

As for `Cn1nc(NS(C)(=O)=O)c2c(Cl)ccc(-c3cc4[nH]cc(Cl)c4nc3C(Cc3cc(F)cc(F)c3)NC(=O)Cn3nc(C(F)F)c4c3C(F)(F)[C@@H]3C[C@H]43)c21` (stereo partly shown) [Example 88], the 50% effective concentration (EC50) in data set [1] (Renilla, NL43, Table 1a) is 0.61 nM. Also, in data set [2] (Table 1a, day 4, XTT), the CC50 at 4 days is above 10 µM.

Turning to `CC(C)c1ccc(-n2c([C@H](Cc3cc(F)cc(F)c3)NC(=O)Cn3nc(C(F)F)c4c3C(F)(F)[C@@H]3C[C@H]43)nc3ncccc3c2=O)cc1` [Example 35, 2-[(2S,4R)-9-(difluoromethyl)-5,5-difluoro-7,8-diazatricyclo[4.3.0.0^2,4]nona-1(6),8-dien-7-yl]-N-[(1S)-2-(3,5-difluorophenyl)-1-{4-oxo-3-[4-(propan-2-yl)phenyl]-3H,4H-pyrido[2,3-d]pyrimidin-2-yl}ethyl]acetamide], the EC50 in data set [1] (Renilla, NL43, Table 1a) amounted to 16.3 nM. For the same molecule, in data set [2] (Table 1a, day 4, XTT), half-maximal cytotoxicity (CC50 at 4 days) was put at 1.58 µM.

With `Cn1nc(NS(C)(=O)=O)c2c(Cl)ccc(-c3cc4[nH]ncc4nc3[C@H](Cc3cc(F)cc(F)c3)NC(=O)Cc3c[nH]c4ccc(O)cc34)c21` [Example 10.22], the concentration for a half-maximal effect (EC50) in data set [1] (Renilla, NL43, Table 1) came out at 22 nM. In data set [2] (Table 1, day 4, XTT), the 50% cytotoxic concentration (CC50) at 4 days was above 10 µM.

For `Cn1nc(NS(C)(=O)=O)c2c(Cl)ccc(-n3c([C@H](Cc4cc(F)cc(F)c4)NC(=O)Cn4ccc(C5CC5)n4)nc4cccc(F)c4c3=O)c21` (single isomer, unassigned) [Example 183], the half-maximal effective concentration (EC50) in data set [1] (Table 1a) is 21.5 nM. This molecule returned a CC50 at 4 days in data set [2] (Table 1a, day 4, XTT) above 1 µM.

As for `CC(C)c1ccc(-c2c(C(Cc3cc(F)cc(F)c3)NC(=O)Cn3nc(C(F)F)c4c3C(F)(F)[C@@H]3C[C@H]43)ncc3[nH]ncc23)cn1` (mixture of isomers) [Example 10.1], the concentration for a half-maximal effect (EC50) in data set [1] (Renilla, NL43, Table 1) is 140 nM. The CC50 at 4 days in data set [2] (Table 1, day 4, XTT) was above 10 µM.

As for `Cn1nc(NS(C)(=O)=O)c2c(Cl)ccc(-n3c([C@H](Cc4cc(F)cc(F)c4)NC(=O)Cn4nc(C(F)F)c5c4C(F)(F)[C@@H]4C[C@H]54)nc4cc(C(F)(F)F)ccc4c3=O)c21` (single isomer, unassigned) [Example 137], the EC50 in data set [1] (Table 1a) came out at 9.89 nM. The CC50 at 4 days in data set [2] (Table 1a, day 4, XTT) is above 1 µM.

`Cn1nc(NS(C)(=O)=O)c2c(Cl)ccc(-n3c([C@H](Cc4cc(F)cc(F)c4)NC(=O)Cn4nc(C(F)F)c5c4C(F)(F)[C@@H]4C[C@H]54)nc4cc(F)cc(F)c4c3=O)c21` (single isomer, unassigned) [Example 130]: the 50% effective concentration (EC50) in data set [1] (Renilla, NL43, Table 1a) amounted to 0.15 nM. Further, the half-maximal cytotoxic concentration (CC50) at 4 days in data set [2] (Table 1a, day 4, XTT) was above 1 µM.

For `Cn1nc(NS(C)(=O)=O)c2c(Cl)ccc(-n3c([C@H](Cc4cc(F)cc(F)c4)NC(=O)Cn4nc(C(F)F)c5c4C(F)(F)[C@@H]4C[C@H]54)nc4cc(Cl)ccc4c3=O)c21` (mixture of isomers) [Example 167, N—((S)-1-(7-chloro-3-(4-chloro-1-methyl-3-(methylsulfonamido)-1H-indazol-7-yl)-4-oxo-3,4-dihydroquinazolin-2-yl)-2-(3,5-difluorophenyl)ethyl)-2-((3bS,4aR)-3-(difluoromethyl)-5,5-difluoro-3b,4,4a,5-tetrahydro-1H-cyclopropa[3,4]cyclopenta[1,2-c]pyrazol-1-yl)acetamide], the EC50 in data set [1] (Table 1a) came out at 80.5 nM. Besides, in data set [2] (Table 1a, day 4, XTT), the CC50 at 4 days is above 1 µM.

Regarding `Cn1nc(NS(C)(=O)=O)c2c(Cl)ccc(-n3c([C@H](Cc4cc(F)cc(F)c4)NC(=O)Cn4nc(C(F)F)c5c4C(F)(F)[C@@H]4C[C@H]54)nc4cc(C(C)(F)F)ccc4c3=O)c21` (mixture of isomers) [Example 195, N—((S)-1-(3-(4-chloro-1-methyl-3-(methylsulfonamido)-1H-indazol-7-yl)-7-(1,1-difluoroethyl)-4-oxo-3,4-dihydroquinazolin-2-yl)-2-(3,5-difluorophenyl)ethyl)-2-((3bS,4aR)-3-(difluoromethyl)-5,5-difluoro-3b,4,4a,5-tetrahydro-1H-cyclopropa[3,4]cyclopenta[1,2-c]pyrazol-1-yl)acetamide], the EC50 in data set [1] (Renilla, NL43, Table 1a) worked out at 74.4 nM. The same molecule came in with a half-maximal cytotoxic concentration (CC50) at 4 days in data set [2] (Table 1a, day 4, XTT) above 1 µM.

As for `Cn1nc(NS(C)(=O)=O)c2c(Cl)ccc(-c3cc4sc(N)nc4nc3C(Cc3cc(F)cc(F)c3)NC(=O)Cn3nc(C(F)F)c4c3C(F)(F)[C@@H]3C[C@H]43)c21` (mixture of isomers) [Example 194, N-(1-(2-amino-6-(4-chloro-1-methyl-3-(methylsulfonamido)-1H-indazol-7-yl)thiazolo[4,5-b]pyridin-5-yl)-2-(3,5-difluorophenyl)ethyl)-2-((3bS,4aR)-3-(difluoromethyl)-5,5-difluoro-3b,4,4a,5-tetrahydro-1H-cyclopropa[3,4]cyclopenta[1,2-c]pyrazol-1-yl)acetamide], in data set [1] (Renilla, NL43, Table 1a), the EC50 came to 1.9 nM. This molecule displayed a CC50 at 4 days in data set [2] (Table 1a, day 4, XTT) above 10 µM.

Consider `Nc1c(-c2ccc3c(c2)C(=O)NC3)c([C@H](Cc2cc(F)cc(F)c2)NC(=O)Cn2nc(C(F)F)c3c2C(F)(F)[C@@H]2C[C@H]32)nc2ncnn12` [Example 62, N—((S)-1-(7-amino-6-(3-oxoisoindolin-5-yl)-[1,2,4]triazolo[1,5-a]pyrimidin-5-yl)-2-(3,5-difluorophenyl)ethyl)-2-((3bS,4aR)-3-(difluoromethyl)-5,5-difluoro-3b,4,4a,5-tetrahydro-1H-cyclopropa[3,4]cyclopenta[1,2-c]pyrazol-1-yl)acetamide], for which the EC50 in data set [1] (Renilla, NL43, Table 1a) came out at 86.3 nM. For the same molecule, the CC50 at 4 days in data set [2] (Table 1a, day 4, XTT) is above 10 µM.

Consider `COc1c(F)ccc2c(=O)n(-c3ccc(Cl)c4c(NS(C)(=O)=O)nn(C)c34)c([C@H](Cc3cc(F)cc(F)c3)NC(=O)Cn3ccc(C4CC4)n3)nc12` (single isomer, unassigned) [Example 111], for which the EC50 in data set [1] (Table 1a) came to 92.6 nM. In data set [2] (Table 1a, day 4, XTT), the CC50 at 4 days was above 1 µM.

As for `Cn1ccc2nc(C(Cc3cc(F)cc(F)c3)NC(=O)Cn3nc(C(F)F)c4c3C(F)(F)[C@@H]3C[C@H]43)c(-c3ccc(Cl)c4c(NS(C)(=O)=O)nn(C)c34)cc21` (single isomer, unassigned) [Example 117], in data set [1] (Renilla, NL43, Table 1a), the 50% effective concentration (EC50) worked out at 0.243 nM. Besides, in data set [2] (Table 1a, day 4, XTT), the cytotoxic concentration (CC50) at 4 days was above 10 µM.

Turning to `CC(C)S(=O)(=O)NC(=O)c1cc(-c2cc3[nH]ncc3nc2[C@H](Cc2cc(F)cc(F)c2)NC(=O)Cn2nc(C(F)F)c3c2C(F)(F)[C@@H]2C[C@H]32)ccc1F` [Example 10.27, 5-(5-((S)-1-(2-((3bS,4aR)-3-(difluoromethyl)-5,5-difluoro-3b,4,4a,5-tetrahydro-1H-cyclopropa[3,4]cyclopenta[1,2-c]pyrazol-1-yl)acetamido)-2-(3,5-difluorophenyl)ethyl)-1H-pyrazolo[4,3-b]pyridin-6-yl)-2-fluoro-N-(isopropylsulfonyl)benzamide], in data set [1] (Renilla, NL43, Table 1), the 50% effective concentration (EC50) was determined as 820 nM. Besides, the CC50 at 4 days in data set [2] (Table 1, day 4, XTT) is above 10 µM.

Turning to `COc1ccc(-n2c([C@H](Cc3cc(F)cc(F)c3)NC(=O)Cc3c[nH]c4ccc(O)cc34)nc3ccccc3c2=O)cc1` [Example 10.30], the EC50 in data set [1] (Renilla, NL43, Table 1) was determined as 8 nM. The molecule also displayed a half-maximal cytotoxic concentration (CC50) at 4 days in data set [2] (Table 1, day 4, XTT) above 10 µM.

Take `O=C(Cn1nc(C(F)F)c2c1C(F)(F)[C@@H]1C[C@H]21)N[C@@H](Cc1cc(F)cc(F)c1)c1nc2cn[nH]c2cc1-c1ccc(Cl)c(C(=O)O)c1` [Example 10.11, 2-Chloro-5-(5-((S)-1-(2-((3bS,4aR)-3-(difluoromethyl)-5,5-difluoro-3b,4,4a,5-tetrahydro-1H-cyclopropa[3,4]cyclopenta[1,2-c]pyrazol-1-yl)acetamido)-2-(3,5-difluorophenyl)ethyl)-1H-pyrazolo[4,3-b]pyridin-6-yl)benzoic acid]: the EC50 in data set [1] (Renilla, NL43, Table 1) is 810 nM. The CC50 at 4 days in data set [2] (Table 1, day 4, XTT) is above 10 µM.

(Values after patent US10954252B1, “Inhibitors of human immunodeficiency virus replication” (ViiV HEALTHCARE UK (NO.5) LIMITED, priority 2017, dated 2021).)
